Starred links: 1 amine or outer side, 2 acyl side, 3 side chain; linkers in the order of their positions; H or OH if unused. Non-standard residues stand in square brackets, D forms with d. Residues, ends and D or L forms follow the SMILES beside them. *: point of attachment. Phe(4-Cl) = N[C@@H](Cc1ccc(Cl)cc1)C(=O)O; Dip = N[C@H](C(=O)O)C(c1ccccc1)c1ccccc1; 2Thi = N[C@@H](Cc1cccs1)C(=O)O; dCha = N[C@H](CC1CCCCC1)C(=O)O; Butoxycarbonyl = CCCCOC(=O)*; Orn = NCCC[C@H](N)C(=O)O; Aze = O=C(O)[C@@H]1CCN1; CO = O=C([*:1])[*:2]; NHPh = c1ccc(N*)cc1

For the assay, the target named is T1, human C5aR(CD88) (Homo sapiens, UniProt P21730).
T1 construct: expressed in transfected cells; host or cells: rat basophilic leukemia cells (RBL)
T1 sequence (P21730 1-350): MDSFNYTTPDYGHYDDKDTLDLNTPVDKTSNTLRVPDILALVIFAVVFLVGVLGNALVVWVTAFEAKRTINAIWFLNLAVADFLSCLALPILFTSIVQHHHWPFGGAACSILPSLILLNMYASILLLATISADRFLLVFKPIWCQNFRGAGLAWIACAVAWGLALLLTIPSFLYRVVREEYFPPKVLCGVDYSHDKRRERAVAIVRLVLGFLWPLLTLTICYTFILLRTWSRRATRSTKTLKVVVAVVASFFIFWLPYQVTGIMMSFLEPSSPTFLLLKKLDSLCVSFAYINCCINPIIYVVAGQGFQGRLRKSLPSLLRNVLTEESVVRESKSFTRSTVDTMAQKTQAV
Kind of assay: Determination of the IC50 value in an enzyme release assay (functional assay, antagonistic activity). Type of assay: cell-based. The note with it: antagonistic activity; IC50 group in enzyme release assay, RBL cells expressing human C5aR(CD88); read-out: activity (group).

As for `CC(=O)N[C@H](C(=O)N[C@@H](CCCN)C(=O)N1CCC[C@H]1C(=O)N[C@H](CC1CCCCC1)C(=O)N[C@@H](Cc1c[nH]c2ccccc12)C(=O)N[C@@H](Cc1ccccc1)C(N)=O)C(c1ccccc1)c1ccccc1` [Compound 78, Ac-Ebw-Orn-Pro-cha-Trp-Phe-NH2] (Ac-[Dip][Orn]P[dCha]WF-NH2), the IC50 was in the range of 50 to 200 nM.

For `CC(=O)N[C@@H](Cc1ccccc1)C(=O)N[C@@H](CCCN)C(=O)N[C@@H](C)C(=O)N[C@H](CC1CCCCC1)C(=O)N[C@@H](Cc1c[nH]c2ccccc12)C(=O)N[C@@H](Cc1ccccc1)C(N)=O` [Compound 79, Ac-Phe-Orn-Ala-cha-Trp-Phe-NH2] (Ac-F[Orn]A[dCha]WF-NH2), the IC50 lay within 50 to 200 nM.

On to `CC(=O)N[C@@H](Cc1ccccc1)C(=O)N[C@@H](CCCN)C(=O)N1CCC[C@H]1C(=O)N[C@H](CC1CCCCC1)C(=O)N[C@@H](Cc1c[nH]c2ccccc12)C(=O)N[C@@H](Cc1cccs1)C(N)=O` [Compound 80, Ac-Phe-Orn-Pro-cha-Trp-Thi-NH2] (Ac-F[Orn]P[dCha]W[2Thi]-NH2), for which the IC50 lay in the range of 50 to 200 nM.

For `CC(=O)N[C@@H](Cc1ccccc1)C(=O)N[C@@H](CCCN)C(=O)N1CC[C@H]1C(=O)N[C@H](CC1CCCCC1)C(=O)N[C@@H](Cc1ccc(Cl)cc1)C(=O)N[C@@H](Cc1ccccc1)C(N)=O` [Compound 81, Ac-Phe-Orn-Aze-cha-Pcf-Phe-NH2] (Ac-F[Orn][Aze][dCha][Phe(4-Cl)]F-NH2), the IC50 lay within 200 to 2000 nM.

For `CC(=O)NCCC[C@H](NC(=O)[C@H](Cc1ccccc1)NC(C)=O)C(=O)N1CCC[C@H]1C(=O)N[C@H](CC1CCCCC1)C(=O)N[C@@H](Cc1c[nH]c2ccccc12)C(=O)N[C@@H](Cc1ccccc1)C(N)=O` [Compound 82, Ac-Phe-Orn(Ac)-Pro-cha-Trp-Phe-NH2] (Ac-F[Orn](Ac)P[dCha]WF-NH2), the IC50 lay in the range of 50 to 200 nM.

Take `NCCC[C@H](NC(=O)[C@H](Cc1ccccc1)NC(=O)Nc1ccccc1)C(=O)N1CCC[C@H]1C(=O)N[C@H](CC1CCCCC1)C(=O)N[C@@H](Cc1c[nH]c2ccccc12)C(=O)N[C@@H](Cc1ccccc1)C(N)=O` [Compound 85, Ph-NH—CO-Phe-Orn-Pro-cha-Trp-Phe-NH2] ({NHPh-CO}-F[Orn]P[dCha]WF-NH2): the IC50 was 50 to 200 nM.

For the compound `CCCCOC(=O)N[C@@H](Cc1ccccc1)C(=O)N[C@@H](CCCN)C(=O)N1CCC[C@H]1C(=O)N[C@H](CC1CCCCC1)C(=O)N[C@@H](Cc1c[nH]c2ccccc12)C(=O)N[C@@H](Cc1ccccc1)C(N)=O` [Compound 86, Bu-O—CO-Phe-Orn-Pro-cha-Trp-Phe-NH2] (Butoxycarbonyl-F[Orn]P[dCha]WF-NH2), the IC50 fell in the range of 200 to 2000 nM.

For `CC(=O)N[C@@H](Cc1ccccc1)C(=O)N[C@@H](CCCCN)C(=O)N1CCC[C@H]1C(=O)N[C@H](CC1CCCCC1)C(=O)N[C@@H](Cc1c[nH]c2ccccc12)C(=O)N[C@@H](Cc1ccccc1)C(N)=O` [Compound 87, Ac-Phe-Lys-Pro-cha-Trp-Phe-NH2] (Ac-FKP[dCha]WF-NH2), the IC50 was 50 to 200 nM.

With `CC(=O)N[C@@H](Cc1ccccc1)C(=O)N[C@@H](CCC(N)=O)C(=O)N1CCC[C@H]1C(=O)N[C@H](CC1CCCCC1)C(=O)N[C@@H](Cc1c[nH]c2ccccc12)C(=O)N[C@@H](Cc1ccccc1)C(N)=O` [Compound 89, Ac-Phe-Gln-Pro-cha-Trp-Phe-NH2] (Ac-FQP[dCha]WF-NH2), the IC50 was 200 to 2000 nM.

With `CC(=O)N[C@@H](Cc1ccccc1)C(=O)N[C@@H](CO)C(=O)N1CCC[C@H]1C(=O)N[C@H](CC1CCCCC1)C(=O)N[C@@H](Cc1c[nH]c2ccccc12)C(=O)N[C@@H](Cc1ccccc1)C(N)=O` [Compound 90, Ac-Phe-Ser-Pro-cha-Trp-Phe-NH2] (Ac-FSP[dCha]WF-NH2), the IC50 is 200 to 2000 nM.

As to `CC(=O)N[C@@H](Cc1ccccc1)C(=O)N[C@@H](CCC(=O)O)C(=O)N1CCC[C@H]1C(=O)N[C@H](CC1CCCCC1)C(=O)N[C@@H](Cc1c[nH]c2ccccc12)C(=O)N[C@@H](Cc1ccccc1)C(N)=O` [Compound 91, Ac-Phe-Glu-Pro-cha-Trp-Phe-NH2] (Ac-FEP[dCha]WF-NH2), the IC50 was 200 to 2000 nM.
